Activity calls are given as the source filed them. No cut-off for these calls is given here.
Assays:
[1] = Inhibition of hemagglutininin-tagged HIV1 Rev protein nuclear export in human HeLa cells assessed as protein localization after 12 hrs by indirect fluorescent antibody technique; assay type: cell-based, Human immunodeficiency virus 1
HeLa = assay: Inhibition of hemagglutininin-tagged HIV1 Rev protein nuclear export in human HeLa cells assessed as protein localization at 10 uM after 12 hrs by indirect fluorescent antibody technique; assay type: cell-based; conditions: Human immunodeficiency virus 1

Work on `CC(=O)OCC1=CO[C@@H](OC(=O)CC(C)C)[C@H]2C1=C[C@H](OC(=O)CC(C)C)[C@]21CO1` [VALTRATE] yielded an IC50 [1] of 2.5 µM.

For `CC(=O)OCC1=CO[C@@H](OC(=O)CC(C)C)[C@H]2[C@@H]1C[C@H](OC(=O)CC(C)C)[C@]21CO1`, the IC50 [1] was 4.4 µM and the inhibition (HeLa) was “Active”.

— ChEMBL document CHEMBL1156329, “Bioisostere of valtrate, anti-HIV principle by inhibition for nuclear export of Rev” (Bioorg Med Chem Lett, 2010)
